Where two headings read alike, the source gives them in different places.
What was measured:
[1] = system: Rabbits; details: rabbit, in vivo
From the text: Then, erythema and edema formation at the application site was observed. […] The mean value of the sum of erythema and edema scores was used as a simple primary skin irritation index. […]

[2] = system: Mice; assay: Acute toxicity test in mice; type: in vivo, mouse; details: intravenous, observed for 2 hours
From the text: Male ICR mice at the age of 4 to 6 weeks were used.

[3] = system: Mice; assay: Effect on scratching behavior induced by serotonin application in mice; type: in vivo, mouse; details: counted for 15 minutes
Procedure: To the cervical and dorsal area of male ICR mice (n=3 to 6) at the age of 4 to 6 weeks, 100 μl of a solution obtained by dissolving serotonin hydrochloride in ethanol at 0.1% (hereinafter referred to as serotonin) was applied, and the number of scratching behavior at the application site with the hind legs occurring immediately after the application was counted for 15 minutes after administration with a counter. Administration of a test compound was carried out by skin application, intravenous administration or oral administration. In the case of skin application, the test compound that was dissolved in ethanol was applied in an amount of 100 μl concurrently with serotonin. In the case of intravenous administration, the test compound that was dissolved in physiological saline was administered at a dose of 10 ml/kg at 5 minutes prior to the serotonin application. In the case of oral administration, the test compound that was dissolved in distilled water was administered at a dose of 10 ml/kg at 20 minutes prior to the serotonin application. The control group of each administration route was given the respective solvent, and the values of scratching behavior were compared between the control group and the test compound group.
The results obtained by skin application of the test compound are shown in Table 3; the results obtained by intravenous administration of the test compound are shown in Table 4; and the results obtained by oral administration of the test compound are shown in Table 5.

[4] = skin application, concentration 0.1% in ethanol, concurrently with serotonin
[5] = oral administration, dose 30 mg/kg, 20 minutes prior to serotonin

SMILES | Simple primary skin irritation index ([1]; female, Kbs: JW, 24 h) | Average number of scratching behavior [3, 4] | also measured
CCOCCNC(=O)c1nc(N[C@H]2CCCC[C@H]2NC(=N)CCO)c2cc(C)ccc2n1.Cl.Cl [Example 61, N-(2-ethoxyethyl)-4-({(1S,2R)-2-[(3-hydroxypropanimidoyl)amino]cyclohexyl}amino)-6-methylquinazolin-2-carboxamide dihydrochloride] | 0.4 | – | –
COCCNC(=O)c1nc(N[C@H]2CCCC[C@H]2NC(N)=NOC)c2cc(C)ccc2n1.Cl.Cl [Example 208, 4-[((1S,2R)-2-{[amino(methoxyimino)methyl]amino}cyclohexyl)amino]-N-(2-methoxyethyl)-6-methylquinazolin-2-carboxamide dihydrochloride] | 0.2 | 81.0 | Change in behavior ([2]; 20 mg/kg): No obvious change; Average number of scratching behavior ([3]; intravenous administration, dose 3 mg/kg, 5 minutes prior to serotonin): 53.8
CCOCCNC(=O)c1nc(N[C@H]2CCCC[C@H]2NC(C)=N)c2cc(C)ccc2n1.Cl.Cl [Example 94, 4-{[(1S,2R)-2-(ethanimidoylamino)cyclohexyl]amino}-N-(2-ethoxyethyl)-6-methylquinazolin-2-carboxamide dihydrochloride] | 1.0 | – | –
CON(C)C(=N)N[C@@H]1CCCC[C@@H]1Nc1nc(C(=O)NCC(C)C)nc2ccc(C)cc12.Cl.Cl [Example 236, 4-{[(1S,2R)-2-({imino[methoxy(methyl)amino]methyl}amino)cyclohexyl]amino}-N-isobutyl-6-methylquinazolin-2-carboxamide dihydrochloride] | 1.6 | – | –
COCCCNC(=O)c1nc(N[C@H]2CCCC[C@H]2NC(=N)CCO)c2cc(C)ccc2n1.Cl.Cl [Example 59, 4-({(1S,2R)-2-[(3-hydroxypropanimidoyl)amino]cyclohexyl}amino)-N-(3-methoxypropyl)-6-methylquinazolin-2-carboxamide dihydrochloride] | 0.2 | 57.8 | –
COCCCNC(=O)c1nc(N[C@H]2CCCC[C@H]2NC(=N)CCOC)c2cc(C)ccc2n1.Cl.Cl [Example 35, 4-({(1S,2R)-2-[(3-methoxypropanimidoyl)amino]cyclohexyl}amino)-N-(3-methoxypropyl)-6-methylquinazolin-2-carboxamide dihydrochloride] | 1.5 | 69.0 | –
COCCCNC(=O)c1nc(N[C@H]2CCCC[C@H]2NC(N)=NOC)c2cc(C)ccc2n1.Cl.Cl [Example 239, 4-[((1S,2R)-2-{[amino(methoxyimino)methyl]amino}cyclohexyl)amino]-N-(3-methoxypropyl)-6-methylquinazolin-2-carboxamide dihydrochloride] | 1.0 | 55.8 | Change in behavior ([2]; 10 mg/kg): No obvious change; Average number of scratching behavior [3, 5]: 88.6
COCCNC(=O)c1nc(N[C@H]2CCCC[C@H]2NC(=N)COC)c2cc(C)ccc2n1.Cl.Cl [Example 91, 4-({(1S,2R)-2-[(2-methoxyethanimidoyl)amino]cyclohexyl}amino)-N-(2-methoxyethyl)-6-methylquinazolin-2-carboxamide dihydrochloride] | 0.5 | 70.5 | –
CC(=N)N[C@@H]1CCCC[C@@H]1Nc1nc(C(=O)NC(C)C)nc2ccc(C)cc12.Cl.Cl [Example 101, 4-{[(1S,2R)-2-(ethanimidoylamino)cyclohexyl]amino}-N-isopropyl-6-methylquinazolin-2-carboxamide dihydrochloride] | 2.6 | 56.8 | Change in behavior ([2]; 10 mg/kg): No obvious change
Cc1ccc2nc(C(=O)NCC(C)C)nc(N[C@H]3CCCC[C@H]3NC(N)=NO)c2c1.Cl.Cl [Example 212, 4-[((1S,2R)-2-{[amino(hydroxyimino)methyl]amino}cyclohexyl)amino]-N-isobutyl-6-methylquinazolin-2-carboxamide dihydrochloride] | 0.8 | 49.8 | Change in behavior ([2]; 10 mg/kg): No obvious change
COCCCNC(=O)c1nc(N[C@H]2CCCC[C@H]2NC(C)=N)c2cc(C)ccc2n1.Cl.Cl [Example 92, 4-{[(1S,2R)-2-(ethanimidoylamino)cyclohexyl]amino}-N-(3-methoxypropyl)-6-methylquinazolin-2-carboxamide dihydrochloride] | 0.0 | 76.3 | Change in behavior ([2]; 10 mg/kg): No obvious change; Average number of scratching behavior [3, 5]: 141.0
COC(C)(C)C(=N)N[C@@H]1CCCC[C@@H]1Nc1nc(C(=O)NCC(C)(C)C)nc2ccc(C)cc12.Cl.Cl [Example 19, N-(2,2-dimethylpropyl)-4-({(1S,2R)-2-[(2-methoxy-2-methylpropanimidoyl)amino]cyclohexyl}amino)-6-methylquinazolin-2-carboxamide dihydrochloride] | 0.4 | 69.2 | –
COCCNC(=O)c1nc(N[C@H]2CCCC[C@H]2NC(=N)N)c2cc(C)ccc2n1.Cl.Cl [Comparative control F, 4-[((1S,2R)-2-{[amino(imino)methyl]amino}cyclohexyl)amino]-N-(2-methoxyethyl)-6-methylquinazoline-2-carboxamide dihydrochloride, reference compound] | 2.2 | – | –
Cc1ccc2nc(C(=O)NC(C)C)nc(N[C@H]3CCCC[C@H]3NC(=N)N)c2c1.Cl.Cl [Comparative control E, 4-[((1S,2R)-2-{[amino(imino)methyl]amino}cyclohexyl)amino]-N-isopropyl-6-methylquinazoline-2-carboxamide dihydrochloride, reference compound] | 3.6 | – | –
COCCCNC(=O)c1nc(N[C@H]2CCCC[C@H]2NC(=N)COC)c2cc(C)ccc2n1.Cl.Cl [Example 93, 4-({(1S,2R)-2-[(2-methoxyethanimidoyl)amino]cyclohexyl}amino)-N-(3-methoxypropyl)-6-methylquinazolin-2-carboxamide dihydrochloride] | 0.2 | – | –
COCCNC(=O)c1nc(N[C@H]2CCCC[C@H]2NC(C)=N)c2cc(C)ccc2n1.Cl.Cl [Example 1, 4-{[(1S,2R)-2-(ethanimidoylamino)cyclohexyl]amino}-N-(2-methoxyethyl)-6-methylquinazolin-2-carboxamide dihydrochloride] | 0.3 | 57.8 | Change in behavior ([2]; 10 mg/kg): No obvious change
Cc1ccc2nc(C(=O)NCC(C)(C)C)nc(N[C@H]3CCCC[C@H]3NC(=N)N)c2c1.Cl.Cl [Comparative control B, 4-[((1S,2R)-2-{[amino(imino)methyl]amino}cyclohexyl)amino]-6-methyl-N-neopentyl quinazoline-2-carboxamide dihydrochloride, reference compound] | – | – | Simple primary skin irritation index [1]: 2.4
COCCCNC(=O)c1nc(N[C@H]2CCCC[C@H]2NC(=N)N)c2cc(C)ccc2n1.Cl.Cl [Comparative control D, 4-[((1S,2R)-2-{[amino(imino)methyl]amino}cyclohexyl)amino]-N-(3-methoxypropyl)-6-methylquinazoline-2-carboxamide dihydrochloride, reference compound] | 2.0 | – | –
CCOCCNC(=O)c1nc(N[C@H]2CCCC[C@H]2NC(=N)N)c2cc(C)ccc2n1.Cl.Cl [Comparative control C, 4-[((1S,2R)-2-{[amino(imino)methyl]amino}cyclohexyl)amino]-N-(2-ethoxyethyl)-6-methylquinazoline-2-carboxamide dihydrochloride, reference compound] | 2.3 | – | –
CCOCCNC(=O)c1nc(N[C@H]2CCCC[C@H]2NC(=N)COC)c2cc(C)ccc2n1.Cl.Cl [Example 95, N-(2-ethoxyethyl)-4-({(1S,2R)-2-[(2-methoxyethanimidoyl)amino]cyclohexyl}amino)-6-methylquinazolin-2-carboxamide dihydrochloride] | 0.7 | – | –
COCCNC(=O)c1nc(N[C@H]2CCCC[C@H]2NC(N)=NOC)c2cc(C)ccc2n1.COCCNC(=O)c1nc(N[C@H]2CCCC[C@H]2NC(N)=NOC)c2cc(C)ccc2n1.O=S(=O)(O)O [Example 248, 4-[((1S,2R)-2-{[amino(methoxyimino)methyl]amino}cyclohexyl)amino]-N-(2-methoxyethyl)-6-methylquinazolin-2-carboxamide 1/2 sulfate] | – | – | Simple primary skin irritation index [1]: 0.8
